According to patent US20020045780A1, “Biologically active spermidine analogues, pharmaceutical compositions and methods of treatment” (priority 1997, published 2002):
Counter-ions that a name gives are not always drawn. Like-named read-outs stand apart in the source and are kept apart here.

Experiments:
[1] = test system: S-adenosylmethionine decarboxylase (AdoMetDC); assay: AdoMetDC activity in treated L1210 cells; format: cell-based, murine; conditions: L1210, 1 μM at 6 hours
Description: (§1) On the basis of these studies, it was elected to evaluate the impact of the triamines on ODC and AdoMetDC at 4 and 6 hours, respectively.
(§2) ODC and AdoMetDC activities were determined as ^14CO2 released from [^14C]-carboxyl-labeled L-ornithine [Seely et al, “Ornithine Decarboxylase (Mouse Kidney),” Methods Enzymol., Vol. 94, pages 158-161 (1983)] or S-adenosyl-L-methionine [Pegg et al, “S-Adenosylmethionine Decarboxylase (Rat Liver),” Methods Enzymol., Vol. 94, pages 234-239 (1983)], respectively. Included in each assay were untreated L1210 cells as controls, as well as cells treated with DEHSPM, a drug having a known reproducible effect on each enzyme, as positive controls.

L1210 cells [2] = assay: L1210 growth inhibition, IC50 determination; format: cell-based, murine
Description: Murine L1210 leukemia cells (ATCC CCL 219) were maintained in logarithmic growth in RPMI-1640 medium containing 10% fetal calf serum or a semi-synthetic equivalent, NuSerum, 2% HEPES-MOPS buffer and 1 mM aminoguanidine.

[3] = test system: ornithine decarboxylase (ODC); assay: ODC activity in treated L1210 cells; format: cell-based, murine; conditions: L1210, 1 μM at 4 hours
Description: as §1, §2

[4] = test system: polyamine transport apparatus; assay: Competitive uptake determination: inhibition of [3H]spermidine transport into L1210 cells; format: cell-based, murine; conditions: analogue inhibition of spermidine transport
Description: The ability of the norspermidines, spermidines, homospermidines, 4,5- and 5,5-triamines to compete with radiolabeled SPD for uptake was evaluated (Table 1). The general trend is that the terminally alkylated triamines have higher Ki values than the unalkylated triamines and are thus less easily taken up by the cell. […] This is not completely true with the norspermidines and the 5,5 triamines. The relationship holds with methyl and ethyl but not for the propyl of the latter two systems. Finally, the number of methylenes separating the amines plays a role in determining polyamine uptake properties. In general the effectiveness with which the analogues compete for uptake is spermidines≈homospermidines>4,5 triamines>5,5 triamines>norspermidine.
The polyamine derivatives were studied for their ability to compete with [^3H]-SPD for uptake into L1210 cells [Bergeron et al, J. Med. Chem., Vol. 37, supra]. Lineweaver-Burk plots indicated a simple competitive inhibition with respect to SPD.

[5] = test system: spermidine/spermine acetyltransferase (SSAT); assay: SSAT activity in treated L1210 cells; format: cell-based, murine; conditions: L1210, 10 μM at 48 hours (triamine analogues)
Text: Spermidine/spermine N^1-acetyltransferase activity was based on quantitation of [^14C]-N^1-acetylspermidine formed by acetylation of SPD with [^14C] acetyl coenzyme A according to the method of Libby et al [Biochem. Pharmacol., Vol. 38, supra]. Cells treated with DENSPM were positive controls.

L1210 cells [6] = assay: Metabolic transformation of polyamine analogues by L1210 cells; format: in vitro ADME, murine; conditions: 48 hours
Description: (§3) The cells were washed twice with cold RPMI-1640, and the pellet was treated with 0.6 N HClO4 (1 ml/10^7 cells). Polyamine contents of the perchloric acid extracts were quantitated by HPLC of the DANSYL derivatives [Bergeron et al, J. Med. Chem., Vol. 37, supra].

L1210 cells [7] = assay: Polyamine pool analysis in L1210 cells; format: cell-based, murine; conditions: for activity at 100 µM / activity at 500 µM / activity at 2 µM / activity at 10 µM / activity at 15 µM / activity at 75 µM: Mus musculus, L1210, 48 h, % of untreated control; for Analogue: intracellular amount, 48 hours
Description: The following guidelines were adopted for studying the impact of the analogues on polyamine pools (Table 2). The measurements were made after a 48-hour exposure to the analogue, and two different concentrations of analogue were evaluated in each case.
as §3

[8] = Mus musculus, L1210, 48 h, L1210, 48 hour exposure, read-out: IC50 48 hour
[9] = Mus musculus, L1210, 96 h, L1210, 96 hour exposure, read-out: IC50 96 hour

SMILES	IC50 (L1210 cells [2]; [8]) [µM]	IC50 (L1210 cells [2]; [9]) [µM]	Analogue (L1210 cells [7]; 100 μM) [nmol/10^6 cells]	Analogue (L1210 cells [7]; 500 μM) [nmol/10^6 cells]	N-Monodealkylation (result in words) (L1210 cells [6]; 100 μM analogue)	Parent drug as % of total drug in the cell (L1210 cells [6]; 100 μM analogue) [%]	Parent drug in L1210 cells (L1210 cells [6]; 100 μM analogue) [pmols/10^6]	AdoMetDC activity, percent of untreated control [1]	ODC activity, percent of untreated control [3]	Ki [4] [µM]	SSAT activity, percent of untreated control [5]	activity at 100 µM (L1210 cells [7]; 100 μM, read-out: Put) [%]	activity at 100 µM (L1210 cells [7]; 100 μM, read-out: Spd) [%]	activity at 100 µM (L1210 cells [7]; 100 μM, read-out: Spm) [%]	activity at 500 µM (L1210 cells [7]; 500 μM, read-out: Put) [%]	activity at 500 µM (L1210 cells [7]; 500 μM, read-out: Spd) [%]	activity at 500 µM (L1210 cells [7]; 500 μM, read-out: Spm) [%]	further results
CCNCCCNCCCNCC [DENSPD, N^1,N^7-Diethylnorspermidine Trihydrochloride]	> 100	10	3.67	3.77	–	–	–	45% of untreated control	80% of untreated control	250	780% of untreated control	0	17	74	0	6 to 15	< 50	Parent drug as % of total drug in the cell (L1210 cells [6]; 500 μM analogue): 90.7%; Parent drug in L1210 cells (L1210 cells [6]; 500 μM analogue): 3761 pmols/10^6
CNCCCCCNCCCCNC [DM(4,5), 2,7,13-Triazatetradecane Trihydrochloride]	2 to 6	0.11 to 0.12	–	–	–	–	–	71% of untreated control	56% of untreated control	21	130% of untreated control	–	–	–	–	–	–	IC50 (L1210 cells [2]; L1210, 48 hour exposure, Trihydrochloride, read-out: IC50 48 hour): 2 µM; N-Monodealkylation (result in words) (L1210 cells [6]; 2 μM analogue): no N-demethylation; Parent drug as % of total drug in the cell (L1210 cells [6]; 2 μM analogue): 100%; Parent drug in L1210 cells (L1210 cells [6]; 2 μM analogue): 2790 pmols/10^6; activity at 2 µM (L1210 cells [7]; 2 μM, read-out: Put): 0%; activity at 2 µM (L1210 cells [7]; 2 μM, read-out: Spd): 33%; activity at 2 µM (L1210 cells [7]; 2 μM, read-out: Spm): 112%; activity at 10 µM (L1210 cells [7]; 10 μM, read-out: Put): 0%; activity at 10 µM (L1210 cells [7]; 10 μM, read-out: Spd): 18%; activity at 10 µM (L1210 cells [7]; 10 μM, read-out: Spm): 111%; Analogue (L1210 cells [7]; 2 μM): 2.79 nmol/10^6 cells; Analogue (L1210 cells [7]; 10 μM): 5.36 nmol/10^6 cells
CNCCCCCNCCCCCNC [DM(5,5), 2,8,14-Triazapentadecane Trihydrochloride]	15	0.4	–	–	–	–	–	97% of untreated control	105% of untreated control	133	90% of untreated control	–	–	–	–	–	–	N-Monodealkylation (result in words) (L1210 cells [6]; 15 μM analogue): no N-demethylation; Parent drug as % of total drug in the cell (L1210 cells [6]; 15 μM analogue): 100%; Parent drug in L1210 cells (L1210 cells [6]; 15 μM analogue): 2560 pmols/10^6; activity at 15 µM (L1210 cells [7]; 15 μM, read-out: Put): 0%; activity at 15 µM (L1210 cells [7]; 15 μM, read-out: Spd): 33%; activity at 15 µM (L1210 cells [7]; 15 μM, read-out: Spm): 115%; activity at 75 µM (L1210 cells [7]; 75 μM, read-out: Put): 0%; activity at 75 µM (L1210 cells [7]; 75 μM, read-out: Spd): 20%; activity at 75 µM (L1210 cells [7]; 75 μM, read-out: Spm): 101%; Analogue (L1210 cells [7]; 15 μM): 2.56 nmol/10^6 cells; Analogue (L1210 cells [7]; 75 μM): 3.61 nmol/10^6 cells
CNCCCCNCCCCNC [DMHSPD, N^1,N^9-Dimethylhomospermidine Trihydrochloride]	> 100	0.9	5.51	5.85	no N-demethylation	100	5500	86% of untreated control	20% of untreated control	5.5	510% of untreated control	0	3	106	0	0	106	–
CCCNCCCCCNCCCCNCCC [DP(4,5), 4,9,15-Triazaoctadecane Trihydrochloride]	~100	< 2	1.40	2.42	–	69.7	1325	86% of untreated control	83% of untreated control	75	80% of untreated control	0	40	119	0	31	121	IC50 (L1210 cells [2]; L1210, 96 hour exposure, Trihydrochloride, read-out: IC50 96 hour): 1 to 1.4 µM; Elaboration to tetraamine (result in words) (L1210 cells [6]; 100 μM analogue): no elaboration of N-Monoalkyl [5,4]

The next lines start with results.

IC50 (L1210 cells [2]; [8]) [µM]	IC50 (L1210 cells [2]; [9]) [µM]	Analogue (L1210 cells [7]; 100 μM) [nmol/10^6 cells]	Analogue (L1210 cells [7]; 500 μM) [nmol/10^6 cells]	N-Monodealkylation (result in words) (L1210 cells [6]; 100 μM analogue)	Parent drug as % of total drug in the cell (L1210 cells [6]; 100 μM analogue) [%]	Parent drug in L1210 cells (L1210 cells [6]; 100 μM analogue) [pmols/10^6]	SMILES	AdoMetDC activity, percent of untreated control [1]	ODC activity, percent of untreated control [3]	Ki [4] [µM]	SSAT activity, percent of untreated control [5]	activity at 100 µM (L1210 cells [7]; 100 μM, read-out: Put) [%]	activity at 100 µM (L1210 cells [7]; 100 μM, read-out: Spd) [%]	activity at 100 µM (L1210 cells [7]; 100 μM, read-out: Spm) [%]	activity at 500 µM (L1210 cells [7]; 500 μM, read-out: Put) [%]	activity at 500 µM (L1210 cells [7]; 500 μM, read-out: Spd) [%]	activity at 500 µM (L1210 cells [7]; 500 μM, read-out: Spm) [%]	further results
> 100	3.5 to 6	5.00	5.51	no N-demethylation	100	5000	CNCCCNCCCNC [DMNSPD, N^1,N^7-Dimethylnorspermidine Trihydrochloride]	41% of untreated control	17% of untreated control	60	250% of untreated control	0	9	58	0	6 to 15	< 50	–
> 100	1.5 to 1.8	4.96	4.89	no N-demethylation	100	5000	CNCCCCNCCCNC [DMSPD, N^1,N^8-Dimethylspermidine Trihydrochloride]	68% of untreated control	–	5.1	270% of untreated control	0	5	58	0	0	54	ODC activity, percent of untreated control ([3]; Trihydrochloride): 22% of untreated control
